The target in test [1] is T1, Alpha-1D adrenergic receptor (Homo sapiens, UniProt P25100). Note: in other assays of this panel Not Active means under 50% inhibition at 10 µM.
T1 sequence (P25100 whole entry): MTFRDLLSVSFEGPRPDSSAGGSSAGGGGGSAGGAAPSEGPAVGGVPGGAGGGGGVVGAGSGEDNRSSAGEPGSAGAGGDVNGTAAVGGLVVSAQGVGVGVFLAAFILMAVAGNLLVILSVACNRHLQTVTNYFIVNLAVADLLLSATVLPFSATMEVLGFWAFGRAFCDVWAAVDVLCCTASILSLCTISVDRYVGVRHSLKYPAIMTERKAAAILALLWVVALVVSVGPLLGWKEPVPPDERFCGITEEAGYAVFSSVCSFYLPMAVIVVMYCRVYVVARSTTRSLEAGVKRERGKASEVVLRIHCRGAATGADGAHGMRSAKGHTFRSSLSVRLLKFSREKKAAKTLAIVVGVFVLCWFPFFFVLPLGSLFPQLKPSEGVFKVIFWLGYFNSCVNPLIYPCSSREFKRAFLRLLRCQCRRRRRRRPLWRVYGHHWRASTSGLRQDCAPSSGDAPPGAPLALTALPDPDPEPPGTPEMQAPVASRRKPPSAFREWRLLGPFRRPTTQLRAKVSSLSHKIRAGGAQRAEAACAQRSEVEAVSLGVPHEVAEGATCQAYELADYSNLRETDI
It is filed as cell membranes, HEK293, Membrane. Conditions: for Ki: read-out: Ki.

Test [2] concerns the target Tyrosine-protein kinase Lck (Homo sapiens, UniProt P06239). Kind of test: DRUGMATRIX: Protein Tyrosine Kinase, LCK enzyme inhibition (substrate: Poly(Glu:Tyr)). The class given is cell-based, Insect cells. Conditions: Not Active = under 50% inhibition at 10 µM.
A further test addresses T2, Interstitial collagenase (Homo sapiens, UniProt P03956).
T2 sequence (P03956 whole entry): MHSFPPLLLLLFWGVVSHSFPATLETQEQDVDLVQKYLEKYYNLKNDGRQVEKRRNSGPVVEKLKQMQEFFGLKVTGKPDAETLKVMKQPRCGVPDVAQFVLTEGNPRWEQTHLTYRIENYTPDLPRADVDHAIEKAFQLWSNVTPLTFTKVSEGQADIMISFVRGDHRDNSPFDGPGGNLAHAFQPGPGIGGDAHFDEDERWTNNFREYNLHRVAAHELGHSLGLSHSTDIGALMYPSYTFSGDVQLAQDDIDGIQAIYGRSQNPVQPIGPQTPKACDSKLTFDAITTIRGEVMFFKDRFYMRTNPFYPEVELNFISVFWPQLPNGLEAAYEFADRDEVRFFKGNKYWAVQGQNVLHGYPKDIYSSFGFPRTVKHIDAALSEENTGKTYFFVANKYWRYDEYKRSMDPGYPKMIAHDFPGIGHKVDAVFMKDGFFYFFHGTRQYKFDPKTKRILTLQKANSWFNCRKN
It is filed as tissue-based, Rheumatoid synovial fibroblasts.

For a further test, the target named is T3, Progesterone receptor (Bos taurus, UniProt Q690N0).
T3 sequence (Q690N0 whole entry): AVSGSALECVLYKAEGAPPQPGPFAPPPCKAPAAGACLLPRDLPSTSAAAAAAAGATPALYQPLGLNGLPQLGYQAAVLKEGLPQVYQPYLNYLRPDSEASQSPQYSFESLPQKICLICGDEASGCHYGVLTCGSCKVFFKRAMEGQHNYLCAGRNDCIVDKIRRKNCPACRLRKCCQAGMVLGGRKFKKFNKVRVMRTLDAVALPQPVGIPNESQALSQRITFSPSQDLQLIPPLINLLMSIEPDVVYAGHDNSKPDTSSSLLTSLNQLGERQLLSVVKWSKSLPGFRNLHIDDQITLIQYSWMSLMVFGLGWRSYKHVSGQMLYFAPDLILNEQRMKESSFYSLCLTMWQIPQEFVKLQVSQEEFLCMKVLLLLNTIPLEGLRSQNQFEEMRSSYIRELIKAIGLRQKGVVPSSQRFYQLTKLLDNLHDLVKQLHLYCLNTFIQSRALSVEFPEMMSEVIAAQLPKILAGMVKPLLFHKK
Description: DRUGMATRIX: Progesterone radioligand binding (ligand: [3H] R-5020). The class given is tissue-based, Uterus. The following applies: Not Active = under 50% inhibition at 10 µM.

In the next test the target is T4, B2 bradykinin receptor (Homo sapiens, UniProt P30411). Note: in other assays of this panel Not Active means under 50% inhibition at 10 µM.
T4 sequence (P30411 whole entry): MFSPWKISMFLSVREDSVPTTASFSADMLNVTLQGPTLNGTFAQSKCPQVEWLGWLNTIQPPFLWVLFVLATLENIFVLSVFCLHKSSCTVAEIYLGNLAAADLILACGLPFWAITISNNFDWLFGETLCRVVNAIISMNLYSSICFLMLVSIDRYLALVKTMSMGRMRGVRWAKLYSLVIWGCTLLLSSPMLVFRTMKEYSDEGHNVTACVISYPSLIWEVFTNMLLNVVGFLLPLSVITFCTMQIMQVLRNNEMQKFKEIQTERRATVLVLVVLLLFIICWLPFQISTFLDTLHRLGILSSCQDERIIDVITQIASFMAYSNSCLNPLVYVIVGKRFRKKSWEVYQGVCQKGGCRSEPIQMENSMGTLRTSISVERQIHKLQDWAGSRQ
It is filed as cell membranes, Membrane. The following applies: chem-1.

Test [3] has as its target T5, 5-hydroxytryptamine receptor 2C (Homo sapiens, UniProt P28335).
T5 sequence (P28335 whole entry): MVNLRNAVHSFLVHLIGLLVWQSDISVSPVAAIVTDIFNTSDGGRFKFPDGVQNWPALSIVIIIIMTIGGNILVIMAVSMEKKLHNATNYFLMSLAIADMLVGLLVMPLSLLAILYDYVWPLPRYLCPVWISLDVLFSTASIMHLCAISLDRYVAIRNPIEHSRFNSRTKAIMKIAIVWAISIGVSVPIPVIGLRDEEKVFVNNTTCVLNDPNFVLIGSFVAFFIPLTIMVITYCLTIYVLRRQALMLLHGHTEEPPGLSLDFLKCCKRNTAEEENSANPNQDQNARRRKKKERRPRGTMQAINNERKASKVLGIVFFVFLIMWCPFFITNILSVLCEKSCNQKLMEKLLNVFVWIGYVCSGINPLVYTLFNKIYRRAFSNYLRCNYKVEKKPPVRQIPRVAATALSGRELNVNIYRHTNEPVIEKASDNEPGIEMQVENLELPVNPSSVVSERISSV
Kind of test: DRUGMATRIX: Serotonin (5-Hydroxytryptamine) 5-HT2C radioligand binding (ligand: [3H] Mesulergine). The class given is cell membranes, CHO-K1, Membrane. Conditions: Not Active = under 50% inhibition at 10 µM; for Ki: read-out: Ki.

Test [4] is described as follows: DRUGMATRIX: Glutamate, AMPA radioligand binding (ligand: [3H] AMPA). It is filed as cell membranes, Rattus norvegicus, Wistar, Cerebral cortex, Membrane. Conditions: Not Active = under 50% inhibition at 10 µM.
Test [5] in a line: DRUGMATRIX: GABAA, Flunitrazepam, Central radioligand binding (ligand: [3H] Flunitrazepam). It is filed as cell membranes, Rattus norvegicus, Wistar, Brain, Membrane. The following applies: Not Active = under 50% inhibition at 10 µM.

Sequence of Tyrosine-protein kinase Lck (P06239 whole entry): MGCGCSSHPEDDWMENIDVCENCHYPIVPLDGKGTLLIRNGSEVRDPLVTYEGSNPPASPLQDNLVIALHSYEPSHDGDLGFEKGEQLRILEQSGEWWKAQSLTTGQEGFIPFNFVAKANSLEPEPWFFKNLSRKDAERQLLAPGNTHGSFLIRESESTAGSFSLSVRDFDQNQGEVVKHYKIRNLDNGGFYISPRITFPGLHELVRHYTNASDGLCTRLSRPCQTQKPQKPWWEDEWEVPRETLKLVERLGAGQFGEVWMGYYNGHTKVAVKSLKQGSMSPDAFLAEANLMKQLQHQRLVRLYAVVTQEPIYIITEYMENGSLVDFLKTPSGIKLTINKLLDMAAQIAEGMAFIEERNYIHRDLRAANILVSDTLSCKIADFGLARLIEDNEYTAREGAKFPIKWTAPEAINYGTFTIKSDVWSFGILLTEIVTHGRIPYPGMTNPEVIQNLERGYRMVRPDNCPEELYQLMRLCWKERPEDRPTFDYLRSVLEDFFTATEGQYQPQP

Usually IC50 stands for the point on the concentration scale where inhibition reaches its midpoint. For orientation: Ki means a measure of affinity in units of concentration, obtained from inhibition or displacement. For the molecule `COc1ccc(CCN2CCC(Nc3nc4ccccc4n3Cc3ccc(F)cc3)CC2)cc1` [ASTEMIZOLE], the IC50 was 769 nM in test [1] (read-out: IC50); 19900 nM in test [2] (read-out: IC50); “Not Active” at Interstitial collagenase; “Not Active” on Progesterone receptor; “Not Active” at B2 bradykinin receptor. The Ki in test [1] turned out to be 378 nM.

As to `CN(C)CCCN1c2ccccc2CCc2ccc(Cl)cc21` [CLOMIPRAMINE], the IC50 in test [3] (read-out: IC50) is 34 nM; in test [1] (read-out: IC50) it was 180 nM; in test [2] (insect cells), “Not Active”; at Interstitial collagenase it was “Not Active”; at Progesterone receptor, “Not Active”; on B2 bradykinin receptor, “Not Active”. In addition, the Ki in test [3] was 18 nM; in test [1] it was 88 nM.

Consider `Clc1ccccc1C(c1ccccc1)(c1ccccc1)n1ccnc1` [CLOTRIMAZOLE], for which the IC50 in test [3] (read-out: IC50) is 14500 nM; in test [1] (read-out: IC50), 15000 nM; in test [2] (insect cells) it was “Not Active”; on Interstitial collagenase, “Not Active”; at Progesterone receptor (read-out: IC50) it was 8770 nM; at B2 bradykinin receptor, “Not Active”. For the same molecule, the results for the Ki (in test [3]; in test [1]; on Progesterone receptor (read-out: Ki)) were 7580 nM, 7380 nM and 1140 nM, respectively.

Take `O=C(CCCN1CCC(O)(c2ccc(Cl)cc2)CC1)c1ccc(F)cc1` [HALOPERIDOL]: the IC50 entry (in test [2] (insect cells); against Interstitial collagenase; against B2 bradykinin receptor) was “Not Active” each time.

`CCC[C@@H]1C[C@@H](C(=O)N[C@@H]([C@H]2O[C@H](SC)[C@H](O)[C@@H](O)[C@H]2O)[C@@H](C)O)N(C)C1` [LINCOMYCIN]: the IC50 entry (in test [3] (cho-k1); in test [1] (hek293); in test [2] (insect cells); in test [4]; against Interstitial collagenase; in test [5]) was “Not Active” in each case. Further, the IC50 entry against B2 bradykinin receptor was “Not Active”. The Ki entry in test [4] and in test [5] was “Not Active” each time.

With `COS(C)(=O)=O` [METHANESULFONIC ACID METHYL ESTER], the IC50 entry (in test [3] (cho-k1); in test [1] (hek293); in test [2] (insect cells); in test [4]; on Interstitial collagenase; in test [5]) was “Not Active” throughout. Moreover, the IC50 entry at B2 bradykinin receptor is “Not Active”. Also, the Ki entry in test [4] and in test [5] was “Not Active” each time.

For `CN1CCN2c3ccccc3Cc3ccccc3C2C1` (stereo not given) [MIANSERIN], the half-inhibitory concentration (IC50) in test [1] (read-out: IC50) is 83 nM; in test [2] (insect cells), “Not Active”; against Interstitial collagenase, “Not Active”; on Progesterone receptor, “Not Active”; at B2 bradykinin receptor, “Not Active”. In addition, the Ki in test [1] worked out at 41 nM.

On to `O=C1c2c(O)ccc(O)c2C(=O)c2c(NCCNCCO)ccc(NCCNCCO)c21` [MITOXANTRONE], for which the IC50 entry (in test [1] (hek293); in test [2] (insect cells); in test [4]; against Interstitial collagenase; in test [5]; at Progesterone receptor) was “Not Active” each time. The concentration for half-maximal inhibition (IC50) result at B2 bradykinin receptor is recorded as “Not Active”. The Ki result in test [4] and in test [5] was “Not Active” in each case.

For the molecule `CC(C)(O)c1ccccc1CC[C@@H](SCC1(CC(=O)O)CC1)c1cccc(/C=C/c2ccc3ccc(Cl)cc3n2)c1` [MONTELUKAST], the IC50 result (in test [3] (cho-k1); in test [1] (hek293); in test [2] (insect cells); against Interstitial collagenase; at Progesterone receptor; on B2 bradykinin receptor) was “Not Active” each time.

Turning to `CSc1ccc2c(c1)N(CCC1CCCCN1C)c1ccccc1S2` (stereo not given) [THIORIDAZINE], the IC50 in test [1] (read-out: IC50) is 5.89 nM; in test [2] (insect cells) it was “Not Active”; against Interstitial collagenase, “Not Active”; at Progesterone receptor, “Not Active”; on B2 bradykinin receptor it was “Not Active”. In addition, the Ki in test [1] stood at 2.9 nM.

Take `COc1cccc(C2(O)CCCCC2CN(C)C)c1` (stereo not given) [TRAMADOL]: the IC50 result (in test [3] (cho-k1); in test [1] (hek293); in test [2] (insect cells); at Interstitial collagenase; on Progesterone receptor; against B2 bradykinin receptor) was “Not Active” in each case.

Take `CN1[C@@H]2CC[C@H]1C[C@@H](OC(=O)c1c[nH]c3ccccc13)C2` [TROPISETRON]: the IC50 entry in test [3] (cho-k1) is “Not Active”; in test [1] (hek293) it was “Not Active”; in test [2] (insect cells), “Not Active”; in test [4], “Not Active”; on Interstitial collagenase it was “Not Active”; in test [5] (read-out: IC50), 1140 nM. Also, the IC50 result at B2 bradykinin receptor is “Not Active”. The Ki result was “Not Active” in test [4] and 926 nM in test [5] (read-out: Ki).

Regarding `COC(=O)[C@@H]1[C@H]2C[C@H]3c4[nH]c5ccccc5c4CCN3C[C@@H]2CC[C@@H]1O` [YOHIMBINE], the IC50 result (in test [3] (cho-k1); in test [2] (insect cells); in test [4]; against Interstitial collagenase; in test [5]; at Progesterone receptor) was “Not Active” in each case. Also, the IC50 entry on B2 bradykinin receptor is “Not Active”. Besides, the Ki entry in test [4] and in test [5] was “Not Active” in each case.

The values are drawn from ChEMBL document CHEMBL1909046, “DrugMatrix in vitro pharmacology data”.
